“Also recorded” adds a separate entry of the source.
Experiments:
[1] = tested on: pain-related behavior induced by intrathecal administration of Compound 1; test: Inhibition of tentative responses for nociception (scratching, biting, licking) induced by intrathecal Compound 1; format: in vivo, mouse
Description: (§1) Scratching, biting, and licking behavior was regarded as an index of tentative responses for nociception, and the duration of such behavior was measured for 5 minutes from 5 minutes after the administration of Compound 1 in a transparent acrylic cage (20×13×10 cm) in a single-blind manner.
(§2) Mice (ddY; weighing 22 to 25 g when the experiment was started) were kept in a plastic cage at a constant temperature and humidity (22±1° C., 55±5%) under a 12-hour light-dark cycle. The mice had free access to food and water.
(§3) Compound 1 was dissolved in a physiological saline solution (Ohtsuka Pharmaceutical Co., Ltd.) and was intrathecally administered to the mice without anesthetization. The intrathecal dose of the drug solution per mouse was 4 μl, and a 30 gauge needle and a 25 μl Hamilton syringe were used according to the method disclosed by Hylden and Wilcox (J. L. K. Hylden & G. L. Wilcox, Eur. J. Pharmacol., 67: 313-316, 1980).
(−)-17cyclopropyl-3,1 4β-dihydroxy-4,5α-epoxy-6β-[N-methyl-trans-3-(3-furyl) acrylamide] morphinan hydrochloride (Compound 2) (H. Nagase et al. Chem. Pharm. Bull. 46, 366, 1998), of which the formula is shown below, [drawing 14] as a selective opioid κ-receptor agonist compound, was intrathecally administered to the mice simultaneously with Compound 1, and the effect thereof on neuropathic pain was evaluated based on tentative responses for nociception, such as scratching, biting, and licking behavior, as indexes. The duration of such behavior was measured for 5 minutes from 5 minutes after the administration of the simultaneous administration of Compound 2 and Compound 1 (15 μg/mouse) in a transparent acrylic cage (20×13×10 cm) in a single-blind manner. Additionally, Compound 2 was dissolved in a physiological saline solution for use.
In order to determine the effect of the drug on neuropathic pain, tentative responses for nociception were tested in the case in which a low dose of 1 or 3 nmol/mouse of Compound 2 was intrathecally administered simultaneously with Compound 1 in a manner similar to that of Example 2 and in the case in which Compound 2 was subcutaneously administered so that systemic exposure to the drug was evaluated. […] Since the effectiveness of Compound 2 has also been shown in systemic exposure, it has become clear that Compound 2 is effective even if the drug is not administered topically, that is, even if the drug is administered in various dosage forms which are pharmacologically acceptable.

[2] = tested on: mice (ddY); test: Production of the neuropathic pain animal model: scratching, biting and licking behavior after intrathecal Compound 1; format: in vivo; conditions: 7.5 μg/mouse or more, measured for 5 minutes from 5 minutes after administration
Description: as §2
as §3, with “(+)-4a-(3-hydroxyphenyl)-2-methyl-1,2,3,4,4a, 5,12,12a-octahydrotrans-quinolino [2,3-g]isoquinoline (Compound 1)” for “Compound 1”
as §1

[3] = tested on: sciatic nerve ligation mouse model; test: Sciatic nerve ligation mouse model, allodynia/hyperalgesia by von Frey hairs; format: in vivo; conditions: subcutaneous
Excerpt: The action of Compound 2 in inhibiting neuropathic pain was investigated using another, widely known neuropathic pain model. That is, the action of Compound 2 in a sciatic nerve ligation mouse model was investigated using a method in which the method disclosed by A. B. Malmberg and A. I. Basbaum (Pain, 76, 215-222, 1998) et al. was slightly modified. In order to measure allodynia or hyperalgesia generally observed in neuropathic pain, two von Frey hairs (0.17 and 1.48 g) having different strengths were used. Four weeks following the surgery, the mice were placed in an acrylic cage (90×100×300 mm) and allowed to acclimate for a minimum of 30 minutes. The von Frey hairs were applied perpendicularly to the soles of the hind feet so as to cause slight bending for a duration of approximately 3 seconds. This was repeated 6 times at intervals of several seconds. The reaction of the mouse was given a score in the manner described below.
2: Immediate escape reaction and flinching of hind paw
The reactions of the surgically operated foot and the opposite foot as control were measured before the administration of the drug, and 30 minutes and 2 hours after the administration of the drug. The difference between the score of the surgically operated foot and the score of the control foot was evaluated as allodynia or hyperalgesia. […]

[4] = tested on: pain associated with zosteriform skin lesions; test: Herpetic pain model, allodynia/hyperalgesia associated with zosteriform skin lesions; format: in vivo; conditions: orally administered; thirty minutes after the administration
Excerpt: The therapeutic effect of Compound 2 on pain associated with zoster classified under neuropathic pain was investigated. The evaluation of the therapeutic effect was made using an animal model produced according to a method disclosed in Pain, 86, 95-101, 2000.

[5] = simultaneous intrathecal administration with 15 μg/mouse of Compound 1

Structure (SMILES): NCC(CC(=O)O)c1ccc(Cl)cc1 (stereo not shown) [Baclofen, reference compound]
- inhibition of tentative responses for nociception induced by Compound 1 [1, 5]: inhibited dose-dependently

Structure (SMILES): CN1CC[C@@]2(c3cccc(O)c3)Cc3nc4ccccc4cc3C[C@@H]2C1 [Compound 1, (+)-4a-(3-hydroxyphenyl)-2-methyl-1,2,3,4,4a, 5,12,12a-octahydrotrans-quinolino [2,3-g]isoquinoline]
- tentative responses for nociception (duration of scratching, biting, and licking behavior) [2]: increased significantly and dose-dependently
- tentative responses for nociception (duration of scratching, biting, and licking behavior) ([2]; listed as Compound I): increases dose-dependently

Structure (SMILES): CN(C(=O)/C=C/c1ccoc1)[C@@H]1CC[C@@]2(O)[C@H]3Cc4ccc(O)c5c4[C@@]2(CCN3CC2CC2)[C@H]1O5.Cl [Compound 2, (−)-17cyclopropyl-3,1 4β-dihydroxy-4,5α-epoxy-6β-[N-methyl-trans-3-(3-furyl)acrylamide] morphinan hydrochloride]
- inhibition of tentative responses for nociception induced by Compound 1 ([1]; 10 nmol/mouse intrathecal, simultaneously with Compound 1 (15 μg/mouse), compared to physiological saline solution-treated group): significantly inhibited
- inhibition of tentative responses for nociception induced by Compound 1 ([1]; low dose of 1 or 3 nmol/mouse intrathecal, simultaneously with Compound 1, hydrochloride): dose-dependent inhibitory action; also recorded: dose-dependently inhibited
- inhibition of tentative responses for nociception induced by Compound 1 ([1]; subcutaneously administered (systemic exposure), hydrochloride): dose-dependent inhibitory action; also recorded: dose-dependently inhibited
- allodynia or hyperalgesia (difference between score of surgically operated foot and control foot) ([3]; after 2 hours): the effect of the drug disappeared
- allodynia or hyperalgesia (difference between score of surgically operated foot and control foot) ([3]; thirty minutes after the administration, von Frey hairs 0.17 and 1.48 g): inhibited allodynia or hyperalgesia
- allodynia or hyperalgesia associated with zosteriform skin lesions [4]: dose-dependently inhibited allodynia or hyperalgesia

Structure (SMILES): CN1CC[C@]23c4c5ccc(O)c4O[C@H]2[C@@H](O)C=C[C@H]3[C@H]1C5 [morphine, reference compound]
- inhibition of tentative responses for nociception induced by Compound 1 [1, 5]: not inhibited at all

Source: US20060094741A1, “Remedies for neuropathic pain and model animals of neuropathic pain” (Toray Industries, Inc., a corporation of Japan, priority 1999, published 2006)
